Measured values from patent US10800791B2, “Triazole ACC inhibitors and uses thereof” (Gilead Apollo, LLC, priority 2015, dated 2020).
pIC50: −log10 of the molar value. In brackets after ≈: the same amount, converted by molar mass.

Tests used:
Botrtyis cinerea (Bc) = experiment: Growth inhibition assay of fungal pathogens, Bc; type: cell-based; conditions: 48 h, Botrtyis cinerea; growth inhibition at 48 hours vs 2% DMSO control; read-out: Concentration at 90% Inhibition Bc
Outline: (§1)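 Spores from sub-cultured plates were diluted in 17% V8 liquid medium and exposed to compound from DMSO stocks at final concentrations of 50, 10 and 2 ppm or 2, 0.4 and 0.08 ppm. OD600 and visual ratings at 48 h were compared with the 2% DMSO control to give percent growth inhibition.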

human (hACC2) = human (hACC2) (Homo sapiens, UniProt O00763); experiment: In vitro ACC inhibition assay (ADP-Glo), hACC2; type: biochemical; conditions: Table 2b, additional results, 5 nM ACC2, 20 μM ATP, 20 μM acetyl-CoA
Sequence of human (hACC2) (O00763 whole entry): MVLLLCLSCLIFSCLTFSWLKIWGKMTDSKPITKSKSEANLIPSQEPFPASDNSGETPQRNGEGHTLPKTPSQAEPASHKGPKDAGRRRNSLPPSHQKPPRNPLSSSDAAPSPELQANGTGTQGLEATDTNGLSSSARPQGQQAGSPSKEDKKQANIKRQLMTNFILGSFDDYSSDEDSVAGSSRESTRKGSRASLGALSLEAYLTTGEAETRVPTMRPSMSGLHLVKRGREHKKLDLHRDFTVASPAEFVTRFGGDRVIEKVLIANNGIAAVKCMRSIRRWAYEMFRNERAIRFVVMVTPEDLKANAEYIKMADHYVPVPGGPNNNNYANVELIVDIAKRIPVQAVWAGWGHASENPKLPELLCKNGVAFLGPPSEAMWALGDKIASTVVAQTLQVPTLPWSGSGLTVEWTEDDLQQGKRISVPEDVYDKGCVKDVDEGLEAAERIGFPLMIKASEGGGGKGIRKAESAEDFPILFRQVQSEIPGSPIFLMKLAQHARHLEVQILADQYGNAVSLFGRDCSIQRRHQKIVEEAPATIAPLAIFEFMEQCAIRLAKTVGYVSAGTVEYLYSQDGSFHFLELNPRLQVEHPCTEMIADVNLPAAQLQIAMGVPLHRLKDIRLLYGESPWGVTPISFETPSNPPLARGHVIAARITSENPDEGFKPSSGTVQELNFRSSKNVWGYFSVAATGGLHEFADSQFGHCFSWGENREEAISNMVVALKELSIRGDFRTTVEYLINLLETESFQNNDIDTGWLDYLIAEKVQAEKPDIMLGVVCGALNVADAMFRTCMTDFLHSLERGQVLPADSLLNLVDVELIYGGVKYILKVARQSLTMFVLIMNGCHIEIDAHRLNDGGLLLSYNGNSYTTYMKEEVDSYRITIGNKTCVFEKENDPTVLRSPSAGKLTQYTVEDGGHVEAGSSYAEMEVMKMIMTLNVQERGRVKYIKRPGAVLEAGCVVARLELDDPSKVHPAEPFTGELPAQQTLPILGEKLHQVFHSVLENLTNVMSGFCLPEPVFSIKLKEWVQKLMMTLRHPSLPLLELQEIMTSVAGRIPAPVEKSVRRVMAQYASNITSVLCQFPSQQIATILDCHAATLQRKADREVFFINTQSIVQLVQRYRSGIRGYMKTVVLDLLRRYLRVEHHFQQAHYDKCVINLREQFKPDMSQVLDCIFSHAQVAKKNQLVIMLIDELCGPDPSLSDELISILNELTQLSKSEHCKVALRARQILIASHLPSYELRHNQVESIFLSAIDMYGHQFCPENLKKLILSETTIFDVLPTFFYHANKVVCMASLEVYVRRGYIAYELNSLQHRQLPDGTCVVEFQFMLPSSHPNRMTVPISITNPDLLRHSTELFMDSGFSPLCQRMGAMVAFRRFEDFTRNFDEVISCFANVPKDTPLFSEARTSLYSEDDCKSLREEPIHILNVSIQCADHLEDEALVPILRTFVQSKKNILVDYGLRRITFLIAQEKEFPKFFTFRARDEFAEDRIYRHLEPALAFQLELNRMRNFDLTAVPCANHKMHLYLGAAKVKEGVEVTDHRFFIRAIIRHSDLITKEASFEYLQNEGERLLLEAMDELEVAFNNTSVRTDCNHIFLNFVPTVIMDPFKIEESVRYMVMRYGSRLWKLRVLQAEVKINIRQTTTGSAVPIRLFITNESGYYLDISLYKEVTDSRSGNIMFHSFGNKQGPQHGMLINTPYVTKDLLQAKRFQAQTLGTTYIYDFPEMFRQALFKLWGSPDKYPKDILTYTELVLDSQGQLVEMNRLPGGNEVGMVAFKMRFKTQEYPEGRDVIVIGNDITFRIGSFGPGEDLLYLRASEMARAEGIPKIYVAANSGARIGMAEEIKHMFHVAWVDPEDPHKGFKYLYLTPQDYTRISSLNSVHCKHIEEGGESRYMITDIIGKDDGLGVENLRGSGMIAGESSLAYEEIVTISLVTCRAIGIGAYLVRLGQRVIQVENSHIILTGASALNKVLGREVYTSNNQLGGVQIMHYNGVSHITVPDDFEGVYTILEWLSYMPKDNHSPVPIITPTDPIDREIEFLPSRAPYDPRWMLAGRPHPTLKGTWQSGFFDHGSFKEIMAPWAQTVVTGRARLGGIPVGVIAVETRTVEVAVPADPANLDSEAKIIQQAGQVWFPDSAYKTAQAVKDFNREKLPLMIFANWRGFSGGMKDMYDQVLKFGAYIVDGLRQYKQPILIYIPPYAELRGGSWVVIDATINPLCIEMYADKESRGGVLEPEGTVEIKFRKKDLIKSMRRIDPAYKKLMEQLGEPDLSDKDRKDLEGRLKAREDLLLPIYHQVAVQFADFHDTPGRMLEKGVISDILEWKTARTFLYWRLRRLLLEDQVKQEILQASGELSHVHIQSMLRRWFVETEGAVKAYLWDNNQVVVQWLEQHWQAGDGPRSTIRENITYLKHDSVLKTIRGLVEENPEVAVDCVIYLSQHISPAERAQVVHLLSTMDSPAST
Experimental: The detailed procedure is as follows. […] 10 μL ADP glo reagent was added. […] 20 μL kinase detection reagent was added.

C. krusei = experiment: Antifungal Activity Assay (broth microtiter MIC), C. krusei; type: cell-based, Candida krusei; conditions: Pichia kudriavzevii, ATCC6258, 48 h, Table 3b (additional results); ATCC 6258; 3 replicates; MIC recorded at 48 h; read-out: MIC, C. krusei ATCC 6258
Outline: (§2)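 Susceptibility was determined by CLSI M27-A3 broth microdilution in RPMI 1640 buffered with MOPS. Growth inhibition was scored visually after 48 h.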

C. albicans = experiment: Antifungal Activity Assay (broth microtiter MIC), C. albicans; type: cell-based, Candida albicans; conditions: Candida albicans, ATCC90028, 48 h, Table 3b (additional results); ATCC 90028; 3 replicates; MIC recorded at 48 h; read-out: MIC, C. albicans ATCC 90028
Outline: as §2

Rhizoctonia solani (Rs) = experiment: Growth inhibition assay of fungal pathogens, Rs; type: cell-based; conditions: 48 h, mycelial plugs, growth inhibition at 48 hours vs 2% DMSO control, read-out: Concentration at 90% Inhibition Rs
fungal (fACC2) = fungal (fACC2) (UniProt Q00955); conditions: read-out: fACC2 (in vitro ACC2 Inhibition Assay, IC50); Table 2b, additional results; ADP-Glo, 5 nM ACC2, 20 μM ATP, 20 μM acetyl-CoA
Sequence of fungal (fACC2) (Q00955 whole entry): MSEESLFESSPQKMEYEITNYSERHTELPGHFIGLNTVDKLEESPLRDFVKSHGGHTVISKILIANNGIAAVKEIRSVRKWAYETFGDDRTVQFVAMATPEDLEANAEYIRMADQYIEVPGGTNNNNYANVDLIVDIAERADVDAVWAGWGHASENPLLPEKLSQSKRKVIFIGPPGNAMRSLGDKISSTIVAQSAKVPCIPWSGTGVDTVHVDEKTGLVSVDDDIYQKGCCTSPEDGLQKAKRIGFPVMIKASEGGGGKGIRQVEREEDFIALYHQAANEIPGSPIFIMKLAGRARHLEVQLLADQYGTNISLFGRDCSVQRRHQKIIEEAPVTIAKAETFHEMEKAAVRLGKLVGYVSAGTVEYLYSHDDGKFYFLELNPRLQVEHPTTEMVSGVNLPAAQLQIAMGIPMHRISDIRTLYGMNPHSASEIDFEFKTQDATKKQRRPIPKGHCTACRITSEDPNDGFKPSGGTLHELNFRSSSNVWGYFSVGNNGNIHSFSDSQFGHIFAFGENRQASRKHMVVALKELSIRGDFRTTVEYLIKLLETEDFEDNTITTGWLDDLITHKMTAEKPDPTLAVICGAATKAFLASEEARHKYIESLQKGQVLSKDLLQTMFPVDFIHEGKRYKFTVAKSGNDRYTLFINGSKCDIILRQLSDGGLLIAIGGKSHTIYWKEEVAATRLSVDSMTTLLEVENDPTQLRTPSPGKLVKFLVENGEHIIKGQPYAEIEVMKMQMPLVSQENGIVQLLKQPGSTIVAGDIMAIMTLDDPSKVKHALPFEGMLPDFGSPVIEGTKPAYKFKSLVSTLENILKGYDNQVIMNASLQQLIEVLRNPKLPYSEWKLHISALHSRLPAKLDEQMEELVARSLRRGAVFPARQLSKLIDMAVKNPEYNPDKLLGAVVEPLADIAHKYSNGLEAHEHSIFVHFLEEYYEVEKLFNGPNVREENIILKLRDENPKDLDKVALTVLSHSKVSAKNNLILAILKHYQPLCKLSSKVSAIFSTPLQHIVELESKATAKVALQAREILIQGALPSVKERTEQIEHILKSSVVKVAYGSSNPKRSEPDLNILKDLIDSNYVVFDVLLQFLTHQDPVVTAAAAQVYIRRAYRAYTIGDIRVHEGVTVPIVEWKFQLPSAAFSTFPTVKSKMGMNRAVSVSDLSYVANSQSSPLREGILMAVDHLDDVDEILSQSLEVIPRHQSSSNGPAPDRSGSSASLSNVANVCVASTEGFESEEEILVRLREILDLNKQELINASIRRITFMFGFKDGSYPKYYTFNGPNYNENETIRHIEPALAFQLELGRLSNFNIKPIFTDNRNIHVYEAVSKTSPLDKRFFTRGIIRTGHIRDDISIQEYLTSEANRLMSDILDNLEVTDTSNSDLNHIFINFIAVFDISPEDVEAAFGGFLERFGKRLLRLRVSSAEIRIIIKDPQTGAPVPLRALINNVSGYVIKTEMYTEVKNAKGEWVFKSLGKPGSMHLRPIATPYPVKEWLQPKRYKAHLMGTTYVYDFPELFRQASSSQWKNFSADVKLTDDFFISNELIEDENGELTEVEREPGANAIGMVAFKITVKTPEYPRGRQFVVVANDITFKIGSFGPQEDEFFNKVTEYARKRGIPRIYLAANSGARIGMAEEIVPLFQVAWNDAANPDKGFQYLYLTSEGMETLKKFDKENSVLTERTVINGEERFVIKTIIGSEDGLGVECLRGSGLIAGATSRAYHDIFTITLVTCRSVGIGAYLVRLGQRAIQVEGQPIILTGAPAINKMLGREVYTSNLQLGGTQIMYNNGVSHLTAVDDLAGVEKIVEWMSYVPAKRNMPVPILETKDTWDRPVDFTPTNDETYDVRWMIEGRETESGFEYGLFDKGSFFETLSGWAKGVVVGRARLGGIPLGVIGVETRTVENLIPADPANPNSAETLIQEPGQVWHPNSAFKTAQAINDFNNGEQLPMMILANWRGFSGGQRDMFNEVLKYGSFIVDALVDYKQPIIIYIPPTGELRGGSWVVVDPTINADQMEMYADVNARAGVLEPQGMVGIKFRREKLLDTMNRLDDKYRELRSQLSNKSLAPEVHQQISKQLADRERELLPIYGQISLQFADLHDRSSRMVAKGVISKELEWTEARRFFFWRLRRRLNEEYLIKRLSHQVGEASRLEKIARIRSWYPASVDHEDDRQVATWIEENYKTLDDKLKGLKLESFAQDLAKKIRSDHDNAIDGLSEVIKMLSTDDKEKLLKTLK

Septoria tritici (St) = experiment: Growth inhibition assay of fungal pathogens, St; type: cell-based; conditions: Zymoseptoria tritici, 48 h, Septoria tritici; growth inhibition at 48 hours vs 2% DMSO control; read-out: Concentration at 90% Inhibition St
Outline: as §1

Diplodia maydis (Dm) = experiment: Growth inhibition assay of fungal pathogens, Dm; type: cell-based; conditions: Stenocarpella maydis, 48 h, Diplodia maydis; growth inhibition at 48 hours vs 2% DMSO control; read-out: Concentration at 90% Inhibition Dm
Outline: as §1

C. parapsilosis = experiment: Antifungal Activity Assay (broth microtiter MIC), C. parapsilosis; type: cell-based, Candida parapsilosis; conditions: Lodderomyces parapsilosis, ATCC22019, 48 h, Table 3b (additional results); ATCC 22019; 3 replicates; MIC recorded at 48 h; read-out: MIC, C. parapsilosis ATCC 22019
Outline: as §2

[1] = system: Phytophthora capsici (Pc); experiment: Growth inhibition assay of fungal pathogens, Pc; type: cell-based; conditions: 48 h, growth inhibition at 48 hours vs 2% DMSO control, read-out: Concentration at 90% Inhibition Pc
Outline: as §1

[2] = system: Collectotrichum graminicola (Cg); experiment: Growth inhibition assay of fungal pathogens, Cg; type: cell-based; conditions: 48 h, Collectotrichum graminicola; growth inhibition at 48 hours vs 2% DMSO control; read-out: Concentration at 90% Inhibition Cg
Outline: as §1

[3] = system: Fusarium moniliforme (Fm); experiment: Growth inhibition assay of fungal pathogens, Fm; type: cell-based; conditions: Fusarium verticillioides, 48 h, Fusarium moniliforme; growth inhibition at 48 hours vs 2% DMSO control; read-out: Concentration at 90% Inhibition Fm
Outline: as §1

[4] = system: Fusarium virguliforme (Fv); experiment: Growth inhibition assay of fungal pathogens, Fv; type: cell-based; conditions: 48 h, growth inhibition at 48 hours vs 2% DMSO control, read-out: Concentration at 90% Inhibition Fv
Outline: as §1

| SMILES | IC90 (Botrtyis cinerea (Bc)) | pIC50 (human (hACC2)) | MIC (C. krusei) | MIC (C. albicans) | IC90 (Rhizoctonia solani (Rs)) | pIC50 (fungal (fACC2)) | IC90 (Septoria tritici (St)) | IC90 (Diplodia maydis (Dm)) | MIC (C. parapsilosis) | IC90 [1] | IC90 [2] | IC90 [3] | IC90 [4] |
| --- | --- | --- | --- | --- | --- | --- | --- | --- | --- | --- | --- | --- | --- |
| COc1ccc(F)cc1[C@H](Cn1c(=O)n([C@@H](C)C(=O)N(C)C(C)C)c(=O)c2c(C)c(-n3nccn3)sc21)OCCC#N [Compound I-188] | 2 µg/mL (≈ 3.35 µM) | 8.00 to 8.30 | 2.01 to 4 µg/mL (≈ 3.36 to 6.69 µM) | 2.01 to 4 µg/mL (≈ 3.36 to 6.69 µM) | 2 µg/mL (≈ 3.35 µM) | 9.00 to 9.52 | > 50 µg/mL | 2 µg/mL (≈ 3.35 µM) | 2.01 to 4 µg/mL (≈ 3.36 to 6.69 µM) | > 50 µg/mL | 10 µg/mL (≈ 16.7 µM) | 0.4 µg/mL (≈ 0.669 µM) | 2 µg/mL (≈ 3.35 µM) |
| COc1ccc(F)cc1[C@@H](O)Cn1c(=O)n(C(C)(C)C(N)=O)c(=O)c2c(C)c(-n3nccn3)sc21 [Compound I-194] | 10 µg/mL (≈ 19.9 µM) | 8.00 to 8.30 | 2.01 to 4 µg/mL (≈ 4 to 7.96 µM) | 2.01 to 4 µg/mL (≈ 4 to 7.96 µM) | > 50 µg/mL | 8.30 to 9.00 | > 50 µg/mL | > 50 µg/mL | > 4.01 µg/mL | > 50 µg/mL | > 50 µg/mL | 10 µg/mL (≈ 19.9 µM) | > 50 µg/mL |
| COc1ccc(F)cc1[C@@H](O)Cn1c(=O)n([C@H](C)C(=O)N2CCCC2)c(=O)c2c(C)c(-n3nccn3)sc21 [Compound I-195] | 2 µg/mL (≈ 3.69 µM) | 8.00 to 8.30 | 1.01 to 2 µg/mL (≈ 1.86 to 3.69 µM) | 1.01 to 2 µg/mL (≈ 1.86 to 3.69 µM) | 0.4 µg/mL (≈ 0.737 µM) | 9.00 to 9.52 | > 50 µg/mL | 10 µg/mL (≈ 18.4 µM) | 1.01 to 2 µg/mL (≈ 1.86 to 3.69 µM) | > 50 µg/mL | 2 µg/mL (≈ 3.69 µM) | 0.4 µg/mL (≈ 0.737 µM) | 0.4 µg/mL (≈ 0.737 µM) |
| COc1ccccc1[C@@H](O)Cn1c(=O)n(C(C)(C)C(N)=O)c(=O)c2c(C)c(-n3nccn3)sc21 [Compound I-196] | > 50 µg/mL | 7.40 to 8.00 | 2.01 to 4 µg/mL (≈ 4.15 to 8.26 µM) | > 4.01 µg/mL | 2 µg/mL (≈ 4.13 µM) | 8.30 to 9.00 | > 50 µg/mL | > 50 µg/mL | > 4.01 µg/mL | > 50 µg/mL | > 50 µg/mL | > 50 µg/mL | > 50 µg/mL |
| COc1ccc(F)cc1[C@@H](O)Cn1c(=O)n([C@H](C)C(=O)N(C)C(C)C)c(=O)c2c(C)c(-n3nccn3)sc21 [Compound I-197] | 0.4 µg/mL (≈ 0.734 µM) | 8.00 to 8.30 | 2.01 to 4 µg/mL (≈ 3.69 to 7.34 µM) | 2.01 to 4 µg/mL (≈ 3.69 to 7.34 µM) | 0.4 µg/mL (≈ 0.734 µM) | 9.00 to 9.52 | > 50 µg/mL | 2 µg/mL (≈ 3.67 µM) | 2.01 to 4 µg/mL (≈ 3.69 to 7.34 µM) | > 50 µg/mL | 2 µg/mL (≈ 3.67 µM) | 0.08 µg/mL (≈ 0.147 µM) | 0.4 µg/mL (≈ 0.734 µM) |
| COc1ccc(F)cc1[C@@H](O)Cn1c(=O)n([C@@H](C)C(=O)N(C)C(C)C)c(=O)c2c(C)c(-n3nccn3)sc21 [Compound I-198] | 0.4 µg/mL (≈ 0.734 µM) | 8.30 to 9.00 | 2.01 to 4 µg/mL (≈ 3.69 to 7.34 µM) | 2.01 to 4 µg/mL (≈ 3.69 to 7.34 µM) | 0.08 µg/mL (≈ 0.147 µM) | 8.30 to 9.00 | > 50 µg/mL | 0.4 µg/mL (≈ 0.734 µM) | 2.01 to 4 µg/mL (≈ 3.69 to 7.34 µM) | 10 µg/mL (≈ 18.4 µM) | 0.4 µg/mL (≈ 0.734 µM) | 0.08 µg/mL (≈ 0.147 µM) | 0.4 µg/mL (≈ 0.734 µM) |
